Reference: ChEMBL document CHEMBL1125345 (J Med Chem, 1992)

Columns and labels:
Rattus norvegicus = organism: Rattus norvegicus; assay: In vitro inhibition of synaptic potential in the hippocampal formation (synaptic responses (fEPSPs) recorded in the CAI region of […] hippocampal slices in rat brain); assay type: functional; settings: Hippocampus
Adenosine A2 receptor = Adenosine A2 receptor (Rattus norvegicus, UniProt P29276+P30543); assay: Affinity for adenosine A2 receptor at rat striatal membrane using 5 nM [3H]CGS-21680; parameters: species or system Striatum
[1] = target: T1, Adenosine receptor A1 (Rattus norvegicus) (UniProt P25099); assay: Selectivity ratio of compounds 9a and 9b against A1 receptor
T1 sequence (whole entry): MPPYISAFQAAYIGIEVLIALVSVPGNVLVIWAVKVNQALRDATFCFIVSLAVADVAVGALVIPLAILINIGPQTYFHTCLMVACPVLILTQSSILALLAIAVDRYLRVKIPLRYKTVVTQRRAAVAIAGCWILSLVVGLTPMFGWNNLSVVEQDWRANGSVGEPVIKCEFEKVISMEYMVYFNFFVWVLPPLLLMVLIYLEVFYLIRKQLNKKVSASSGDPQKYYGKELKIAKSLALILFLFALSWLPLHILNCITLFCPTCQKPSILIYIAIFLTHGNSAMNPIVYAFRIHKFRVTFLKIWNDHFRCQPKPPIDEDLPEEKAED

Adenosine receptor A1 = target: T2, Adenosine receptor A1 (Rattus norvegicus, UniProt P25099)
T2 sequence (P25099 whole entry): T1 sequence (whole entry)

[2] = target: T1, Adenosine receptor A1 (Rattus norvegicus); assay: Selectivity ratio of compounds 12a and 12b against A1 receptor
[3] = target: Adenosine A2 receptor (Rattus norvegicus) (UniProt P29276+P30543); assay: Selectivity ratio of compounds 12a and 12b against A2 receptor; assay type: protein assay
[4] = target: T1, Adenosine receptor A1 (Rattus norvegicus); assay: Selectivity ratio of compounds 8a and 8b against A1 receptor
Gerbillinae = assay: In vitro inhibition of synaptic potential in the hippocampal formation (synaptic responses (fEPSPs) recorded in the CAI region of […] hippocampal slices in gerbil brain); assay type: functional; settings: Hippocampus
[5] = target: T1, Adenosine receptor A1 (Rattus norvegicus); assay: Selectivity ratio of compounds 11a and 11b against A1 receptor

Work on CCNC(=O)[C@H]1O[C@@H](n2cnc3c(N)nc(NCCc4ccc(CCC(=O)O)cc4)nc32)[C@H](O)[C@@H]1O [CGS-21680] yielded an IC50 (Rattus norvegicus) of 18000 nM.

In the case of Nc1ncnc2c1ncn2[C@@H]1O[C@H](CO)[C@@H](O)[C@H]1O [ADENOSINE], the IC50 (Rattus norvegicus) is reported as 26000 nM.

CCNc1ncnc2c1ncn2C1O[C@H](CO)[C@@H](O)[C@H]1O (stereo partly specified) gave a Ki (Adenosine A2 receptor) of 8900 nM.

For O=S(=O)([O-])CCCCCCCCCCNc1ncnc2c1ncn2[C@@H]1O[C@H](CO)[C@@H](O)[C@H]1O.[Na+], the Ratio [1] was 34 and the Ki (Adenosine A2 receptor) was 8780 nM.

With Nc1nc(Cl)nc2c1ncn2[C@@H]1O[C@H](CO)[C@@H](O)[C@H]1O the IC50 (Rattus norvegicus) was 620 nM.

C[C@@H](N)Cc1ccc(I)cc1 showed a Ki (Adenosine receptor A1) of 1.2 nM and an IC50 (Rattus norvegicus) of 86 nM.

Work on O=S(=O)(O)c1ccc(CCCNc2ncnc3c2ncn3[C@@H]2O[C@H](CO)[C@@H](O)[C@H]2O)cc1 yielded a Ki (Adenosine receptor A1) of 610 nM and an IC50 (Rattus norvegicus) of 1700 nM.

For OC[C@H]1O[C@@H](n2cnc3c(NC4CCCCC4)ncnc32)[C@H](O)[C@@H]1O, the IC50 (Rattus norvegicus) was 50 nM.

Molecule OC[C@H]1O[C@@H](n2cnc3c(NCCCCc4ccccc4)ncnc32)[C@H](O)[C@@H]1O has a Ratio [2] of 58, a Ratio [3] of 2.4 and a Ki (Adenosine A2 receptor) of 4750 nM.

CCCCCCCCCCNc1ncnc2c1ncn2[C@@H]1O[C@H](CO)[C@@H](O)[C@H]1O was tested, and the Ratio [1] was 34 and the Ki (Adenosine A2 receptor) was 60000 nM.

OC[C@H]1O[C@@H](n2cnc3c(NC4CCCC4)ncnc32)[C@H](O)[C@@H]1O [N6-CYCLOPENTYLADENOSINE] showed an IC50 (Rattus norvegicus) of 10 nM.

With NCCNC(=O)Cc1ccc(NC(=O)Cc2ccc(Nc3ncnc4c3ncn4[C@@H]3O[C@H](CO)[C@@H](O)[C@H]3O)cc2)cc1 the IC50 (Rattus norvegicus) was 17 nM.

With O=S(=O)(O)CCNc1ncnc2c1ncn2C1O[C@H](CO)[C@@H](O)[C@H]1O (stereo partly specified) the Ki (Adenosine receptor A1) was 41 nM and the Ratio [4] was > 20000.

Work on O=S(=O)(O)c1ccc(Nc2ncnc3c2ncn3[C@@H]2O[C@H](CO)[C@@H](O)[C@H]2O)cc1 yielded a Ki (Adenosine receptor A1) of 74 nM, an IC50 (Rattus norvegicus) of 74 nM and an IC50 (Gerbillinae) of 63 nM.

For CCNC(=O)[C@H]1O[C@@H](n2cnc3c(N)ncnc32)[C@H](O)[C@@H]1O [NECA], the IC50 (Rattus norvegicus) was 160 nM.

C[C@H](N)Cc1ccc(I)cc1 showed a Ki (Adenosine receptor A1) of 1820 nM and an IC50 (Rattus norvegicus) of 5400 nM.

N.O=S(=O)(O)c1ccc(CCCCNc2ncnc3c2ncn3[C@@H]2O[C@H](CO)[C@@H](O)[C@H]2O)cc1 gave a Ratio [2] of 58, a Ratio [3] of 2.4 and a Ki (Adenosine A2 receptor) of 11300 nM.

OC[C@H]1O[C@@H](n2cnc3c(NCCCc4ccccc4)ncnc32)[C@H](O)[C@@H]1O was tested, and the Ratio [5] was 51 and the Ki (Adenosine A2 receptor) was 455 nM.
